Test results reported in patent publication US11759462B2, “Spirocyclic compounds as tryptophan hydroxylase inhibitors” (priority 2013, dated 2023).

Target: T1, Recombinant human TPH1 (MBP tagged) (Homo sapiens, UniProt P17752)
T1 construct: cloning full length human TPH1 cDNA in to a bacterial pMAL-c5E expression vector; made in house; host or cells: E. coli BL21 (DE3)
T1 sequence (P17752 1-444): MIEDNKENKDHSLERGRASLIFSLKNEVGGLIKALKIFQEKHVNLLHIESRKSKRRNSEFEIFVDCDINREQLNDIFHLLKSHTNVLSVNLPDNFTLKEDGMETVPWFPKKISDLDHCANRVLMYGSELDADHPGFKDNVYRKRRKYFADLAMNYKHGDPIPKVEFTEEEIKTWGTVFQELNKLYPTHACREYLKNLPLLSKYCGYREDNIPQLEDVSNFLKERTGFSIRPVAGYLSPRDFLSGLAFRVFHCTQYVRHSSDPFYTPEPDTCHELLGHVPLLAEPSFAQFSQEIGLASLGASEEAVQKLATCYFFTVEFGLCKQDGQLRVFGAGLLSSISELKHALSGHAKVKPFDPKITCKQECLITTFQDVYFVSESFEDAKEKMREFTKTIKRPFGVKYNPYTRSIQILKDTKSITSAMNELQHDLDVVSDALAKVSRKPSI
Test: TPH1 in vitro inhibition assay (kinetic fluorescence)
Type: biochemical
Conditions: read-out: TPH1 Range (TPH1 inhibition IC50)
How it was run: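 Final mix: 15 nM MBP-TPH1, 30 μM Trp, 36 μM 6-methyltetrahydropterin, 25 μM ferrous ammonium sulfate, 50 mM MES pH 7.1, 1% DMSO, room temperature.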

IC50 [µM]	Structure (SMILES)
0.05 to 0.3	Cc1ccc(-c2ccc([C@@H](Oc3cc(N4CCC5(CC4)CN[C@H](C(=O)O)C5)nc(N)n3)C(F)(F)F)cc2)cn1 [Example 55bo, (S)-8-(2-amino-6-((R)-2,2,2-trifluoro-1-(4-(6-methylpyridin-3-yl)phenyl)ethoxy)pyrimidin-4-yl)-2,8-diazaspiro[4.5]decane-3-carboxylic acid]
0.05 to 0.3	Cn1cccc(-c2cc(Cl)ccc2[C@@H](Oc2cc(N3CCC4(CC3)CN[C@H](C(=O)O)C4)nc(N)n2)C(F)(F)F)c1=O [Example 34cj, (S)-8-(2-amino-6-((R)-1-(4-chloro-2-(1-methyl-2-oxo-1,2-dihydropyridin-3-yl)phenyl)-2,2,2-trifluoroethoxy)pyrimidin-4-yl)-2,8-diazaspiro[4.5]decane-3-carboxylic acid]
3 to 10	Nc1nc(NCc2cccc(-c3ccccc3)c2)nc(N2CCC3(CC2)CNC(C(=O)O)C3)n1 (stereo not shown) [Example 39d, 8-(4-(([1,1′-biphenyl]-3-ylmethyl)amino)-6-amino-1,3,5-triazin-2-yl)-2,8-diazaspiro[4.5]decane-3-carboxylic acid]
0.05 to 0.3	Nc1nc(O[C@H](c2ccc(Cl)cc2-c2cccc(C(=O)N3CCOCC3)c2)C(F)(F)F)cc(N2CCC3(CC2)CN[C@H](C(=O)O)C3)n1 [Example 34cg, (S)-8-(2-amino-6-((R)-1-(5-chloro-3′-(morpholine-4-carbonyl)-[1,1′-biphenyl]-2-yl)-2,2,2-trifluoroethoxy)pyrimidin-4-yl)-2,8-diazaspiro[4.5]decane-3-carboxylic acid]
< 0.05	CCc1ccc(-n2ccc(C)n2)c([C@@H](Oc2cc(N3CCC4(CC3)CN[C@H](C(=O)O)C4)nc(N)n2)C(F)(F)F)c1 [Example 22a, (S)-8-(2-amino-6-((R)-1-(5-ethyl-2-(3-methyl-H-pyrazol-1-yl)phenyl)-2,2,2-trifluoroethoxy)pyrimidin-4-yl)-2,8-diazaspiro[4.5]decane-3-carboxylic acid]
0.3 to 3	COc1cc(F)ccc1-c1ccc([C@@H](Oc2cc(N3CCC4(CC3)CN[C@H](C(=O)O)C4)nc(N)n2)C(F)(F)F)cc1 [Example 55bl, (S)-8-(2-amino-6-((R)-2,2,2-trifluoro-1-(4′-fluoro-2′-methoxy-[1,1′-biphenyl]-4-yl)ethoxy)pyrimidin-4-yl)-2,8-diazaspiro[4.5]decane-3-carboxylic acid]
0.3 to 3	Nc1nc(O[C@H](c2ccc(-c3cccc(C(=O)O)c3)cc2)C(F)(F)F)cc(N2CCC3(CC2)CN[C@H](C(=O)O)C3)n1 [Example 55bq, (S)-8-(2-amino-6-((R)-1-(3′-carboxy-[1,1′-biphenyl]-4-yl)-2,2,2-trifluoroethoxy)pyrimidin-4-yl)-2,8-diazaspiro[4.5]decane-3-carboxylic acid]
< 0.05	Cc1ccn(-c2cc(-c3ccc(C(=O)N(C)C)cc3)ccc2[C@@H](Oc2cc(N3CCC4(CC3)CN[C@H](C(=O)O)C4)nc(C)n2)C(F)(F)F)n1 [Example 29j, (S)-8-(6-((R)-1-(4′-(dimethylcarbamoyl)-3-(3-methyl-1H-pyrazol-1-yl)-[1,1′-biphenyl]-4-yl)-2,2,2-trifluoroethoxy)-2-methylpyrimidin-4-yl)-2,8-diazaspiro[4.5]decane-3-carboxylic acid]
0.05 to 0.3	CC(C)Oc1cc(F)cc(-c2cc(Cl)ccc2[C@@H](Oc2cc(N3CCC4(CC3)CN[C@H](C(=O)O)C4)nc(N)n2)C(F)(F)F)c1 [Example 34bl, (S)-8-(2-amino-6-((R)-1-(5-chloro-3′-fluoro-5′-isopropoxy-[1,1′-biphenyl]-2-yl)-2,2,2-trifluoroethoxy)pyrimidin-4-yl)-2,8-diazaspiro[4.5]decane-3-carboxylic acid]
0.05 to 0.3	Nc1nc(O[C@H](c2ccc(-c3cc(F)cc(F)c3)cc2)C(F)(F)F)cc(N2CCC3(CC2)CN[C@H](C(=O)O)C3)n1 [Example 55ap, (S)-8-(2-amino-6-((R)-1-(3′,5′-difluoro-[1,1′-biphenyl]-4-yl)-2,2,2-trifluoroethoxy)pyrimidin-4-yl)-2,8-diazaspiro[4.5]decane-3-carboxylic acid]
